Results: the supplement of paper PMC4862054

Columns and labels:
Test in all cases: drug sensitivity score (DSS), CellTiter-Blue viability (DSS (AUC-based score)); higher = stronger viability inhibition; extreme values may be limits of the assay
Settings in all cases: incubation time: 72 h
BT-549 = test system: BT-549
Description: (§1)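 DSRT with the CellTiter-Blue (resazurin reduction) viability readout, fluorescence 560/590 nm, 72 h incubation. Plates were normalised to DMSO and benzethonium chloride controls. DSS is computed from the area under the fitted dose-response curve (5 or 9 concentrations).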

CAL-120 = test system: CAL-120
Description: as §1

CAL-85-1 = test system: CAL-85-1
Description: as §1

MDA-MB-231 = test system: MDA-MB-231
Description: as §1

BT-474 = test system: BT-474
Description: as §1

Hs578T = test system: Hs578T
Description: as §1

HCC1143 = test system: HCC1143
Description: as §1

CAL-148 = test system: CAL-148
Description: as §1

HCC1937 = test system: HCC1937
Description: as §1

MDA-MB-436 = test system: MDA-MB-436
Description: as §1

MFM-223 = test system: MFM-223
Description: as §1

MDA-MB-468 = test system: MDA-MB-468
Description: as §1

SK-BR-3 = test system: SK-BR-3
Description: as §1

CAL-51 = test system: CAL-51
Description: as §1

HCC1599 = test system: HCC1599
Description: as §1

HDQ-P1 = test system: HDQ-P1
Description: as §1

DU-4475 = test system: DU-4475
Description: as §1

MDA-MB-453 = test system: MDA-MB-453
Description: as §1

Compound	drug sensitivity score (BT-549)	drug sensitivity score (CAL-120)	drug sensitivity score (CAL-85-1)	drug sensitivity score (MDA-MB-231)	drug sensitivity score (BT-474)	drug sensitivity score (Hs578T)	drug sensitivity score (HCC1143)	drug sensitivity score (CAL-148)	drug sensitivity score (HCC1937)	drug sensitivity score (MDA-MB-436)	drug sensitivity score (MFM-223)	drug sensitivity score (MDA-MB-468)	drug sensitivity score (SK-BR-3)	drug sensitivity score (CAL-51)	drug sensitivity score (HCC1599)	drug sensitivity score (HDQ-P1)	drug sensitivity score (DU-4475)	drug sensitivity score (MDA-MB-453)
Cc1[nH]c2ccccc2c1CCNCc1ccc(/C=C/C(=O)NO)cc1 [Panobinostat]	9.07	22.2	18.2	16.5	17.5	17.6	16.3	22.1	17.9	9.42	14.6	11.3	23	15	16.1	14	20	27.8
C=C1C[C@@H]2[C@H](CC[C@]3(C)C(=O)CC[C@@H]23)[C@@]2(C)C=CC(=O)C=C12 [Exemestane]	0	0	0	0	0	0	0	0	0	0	0	0	0	0	0	0	0	1.5
Nc1cc(C(F)(F)F)c(-c2cc(N3CCOCC3)nc(N3CCOCC3)n2)cn1 [BKM-120]	8.93	8.37	9.38	8.24	9.72	5.79	5.44	8.55	6.85	4.25	9.9	6.64	16.8	11.6	8.97	9.78	6.63	13.8
S=P(N1CC1)(N1CC1)N1CC1 [Thio-TEPA]	0	0	0	3.37	0	0	0	0	0	0	0	0	0	0	0	0	0	0
O=P1(N(CCCl)CCCl)NCCCO1 (stereo not drawn) [Cyclophosphamide]	0	0	0	0	0	0	0	0	0	0.105	0	0	0	0	0	0	0	0
COCC1(CO)C(=O)C2CCN1CC2 (stereo not drawn) [Prima-1 Met]	0	0	0	0	2.5	0.00378	0	0	3.72	0	0	0	0	0	0	0	0	0
NC(=O)c1ccc(I)c([N+](=O)[O-])c1 [Iniparib]	0	1.19	0	0	0	0	0	0	0	0	0	0	0	0	0	0	0	0
COC(=O)c1ccc2c(c1)NC(=O)/C2=C(\Nc1ccc(N(C)C(=O)CN2CCN(C)CC2)cc1)c1ccccc1 [BIBF 1120]	3.02	6.55	1.29	4.3	3.34	1.63	0	0	0	1.32	9.32	2.89	2.7	5.59	0	1.16	2.02	5.53
COCC[n+]1c2c(n(Cc3cnccn3)c1C)C(=O)c1ccccc1C2=O [YM155]	26.8	40.9	38	40	32.9	22.6	30.3	35.7	39.1	37.9	29.7	40.3	37	31.9	34	33.6	23.3	35.5
CN(C)c1nc(N(C)C)nc(N(C)C)n1 [Altretamine]	0	0	1.01	0	0	0	0	0	0	0	0	0	0	0	1.24	0	0	2.05
COc1cc(OC2CCN(C)CC2)ccc1Nc1ncc2c(n1)n(C1CCCC1)c(=O)n2C [AZ 3146]	0	0.478	1.25	3.65	0	0	0	4.7	0	0	0	0	2.13	8.18	0	0	1.56	3.31
c1ccc2c(CCNc3ccc(Nc4ccncc4)cc3)c[nH]c2c1 [Serdemetan]	6.96	0	0	0	0	2.84	0	4.36	0	8.76	0	0	0	1.53	1.87	0	3.86	3.89
O=C(Nc1ccncc1)C(=O)c1cn(Cc2ccc(Cl)cc2)c2ccccc12 [Indibulin]	16.6	22.2	11.8	20.7	18.3	11.3	16.4	2.12	25.9	8.9	5.75	15.3	25.9	10.8	0	12.5	7.93	18
CN(C)CCOc1ccc(/C(=C(/CCCl)c2ccccc2)c2ccccc2)cc1 [Toremifene]	0	0	0	0	0	0	0	0	0	1.83	0	2.87	0	0	0	0	0	1.86
CO[C@H]1C[C@@H]2CC[C@@H](C)[C@@](O)(O2)C(=O)C(=O)N2CCCC[C@H]2C(=O)O[C@H]([C@H](C)C[C@@H]2CC[C@@H](OP(C)(C)=O)[C@H](OC)C2)CC(=O)[C@H](C)/C=C(\C)[C@@H](O)[C@@H](OC)C(=O)[C@H](C)C[C@H](C)/C=C/C=C/C=C/1C [Ridaforolimus]	17.6	19.1	16	2.74	14.5	19.1	16.3	25	17.2	1.25	22.1	16.7	16.8	22	0	7.08	16.7	29.9
Cc1cc(Nc2cc(CN3CCOCC3)c3nc(C)c(Cc4ccc(Cl)cc4F)n3n2)n[nH]1	6.94	8.01	4.09	7.21	3.02	7.69	11.4	0	6.84	7.24	13.5	10.3	6.64	6.91	0	11.8	4.98	10.2
